Data on ten compounds can be found in US4544660A, “Pharmaceutically active tropanes” (Beecham Group p.l.c., priority 1978, dated 1985).

Each structure is given as a SMILES string. Read-outs that look alike come from different tables or passages of the source.

Test [1] is described as follows: Anti-arrhythmic activity (single compound test).
For test [2], the system named is Dopamine Receptor. In words: Inhibition of apomorphine induced stereotype behaviour in the rat. Type of test: in vivo. Details: key to I(a) Dose Inhibiting Stereotype Behaviour (slight inhibition, footnote *): *: slight at 0.05; key to I(a) Dose Inhibiting Stereotype Behaviour (slight inhibition, footnote +): +: slight at 1. The note with it: s.c.; for I(a) Dose Inhibiting Stereotype Behaviour (dose for complete inhibition): apomorphine induced, IA(x) = inactive at dose in brackets. The text has this: (§1) I. Dopamine Receptor Blocking Activity in the Central Nervous System
(a) Inhibition of apomorphine induced stereotype behaviour in the rat
(method of Ernst (1967), Psychopharmacologia (Berl.) 10 316-323).

The test system of test [3] is Dopamine Receptor. The experiment in a line: Inhibition of apomorphine induced climbing in the mouse. The note with it: p.o., apomorphine 1 mg/kg s.c. The test is classed as in vivo. As to the method: as §1
(b) Inhibition of apomorphine induced climbing in the mouse
The test is based on that described by Protais, P., Constantin, J. and Schwartz J.C. (1976), Psychopharmacology, 50, 1-6.
Apomorphine 1 mg/kg s.c. induces mice to climb the wall of a wire cage (inverted food hopper--11×7.5×18 cm high). Mice acclimatised in their home cages in groups of 5 are placed under the hoppers immediately after the injection of apomorphine 1 mg/kg s.c. At 10,20 and 30 minutes after injection climbing behaviour is scored. The mice are observed for 30 seconds and scored according to the position they spend the majority of time in, score 0--four paws on floor of cage; score 1--fore paws only on walls; score 2--all paws on wall of cage. The scores at all 3 times and for each mouse are summed and mice drug treated orally compared to mice receiving apomorphine only. A saline only treated group is also included and any score, generally <5% of maximum taken into account.

Test [4] concerns the target T1, dopamine receptor (Rattus norvegicus, UniProt P61169).
T1 construct: the caudate nucleus is quickly dissected out; from tissue; host or cells: caudate nucleus of male Hooded Lister rats, homogenate
The experiment in a line: In vitro displacement of radiolabelled spiroperidol from dopamine receptor membranes. Type of test: binding, rat (Male Hooded Lister). The conditions noted are these: for inhibition at 10 µM: 0.25 h, 10^-5 M compound, read-out: I(c) Spiroperidol Displacement % at 10^-5 M. On the procedure:
(c) In vitro displacement of radiolabelled spiroperidol from dopamine receptor membranes
Therefore a compound which displaces this ligand from dopamine receptor membranes may have neuroleptic properties.
Male Hooded Lister rats (200-300 g) are decapitated and the caudate nucleus is quickly dissected out. This is homogenised in ice cold Tris buffer (pH 7.7 at 25° C.) at a concentration of 10 mg/ml wet weight of tissue. The test compound (at 10^-5 M) or spiroperidol (standard curve from 10^-5 to 10^-9 M) is added to the assay tubes followed by 0.5 nM [^3 H]-spiroperidol. This is mixed with 500 μl of the membrane preparation and the assay tubes are incubated for 15 minutes at 37° C. After this period 4 ml ice cold Tris buffer is added to each tube and the solutions are filtered through per-soaked glass fibre filters. The filter is washed twice with 4 ml of the buffer and then transferred to a scintillation vial for counting. Single concentration results are given as a percentage of [^3 H]-spiroperidol displaced.

The next test deals with vomiting response. In words: Anti-emetic activity in the dog (apomorphine induced vomiting). The test is classed as in vivo. Details: key to II Anti-Emetic Activity Dose, slight activity (footnote *): *: slight at 5 × 10^-4. The conditions noted are these: s.c.; for ED100: Canis lupus familiaris, 30 min before apomorphine HCl 0.1 mg/kg s.c., complete inhibition, read-out: II Anti-Emetic Activity Dose, Complete Inhibition. On the procedure: II. Anti-emetic activity in the dog
Compounds were administered subcutaneously 30 minutes prior to administration of a standard dose of apomorphine HCl (0.1 mg/kg subcutaneously) and the vomiting response compared to that obtained when the same animals were dosed with apomorphine HCl and vehicle only.

Another test concerns intragastric pressure. The experiment in a line: Increase in intragastric pressure in the rat. Type of test: in vivo. Also on record: III(a) Increase in Intragastric Pressure Dose (minimum dose for activity): unit not given here. The conditions noted are these: s.c., 40 minute period after administration. On the procedure: (a) Increase in intragastric pressure in the rat
Intragastric pressure changes were recorded from previously starved conscious but restrained rats using a saline filled catheter inserted into the lumen of the stomach via a permanent gastric fistula. The catheter was connected to a physiological pressure transducer and pressure changes recorded on a hot wire pen recorder. In each animal a pre-dose period of 40 minutes was allowed to obtain a measure of spontaneous activity. An index of activity was obtained by measuring the average height of pressure waves during 10 minute periods. Values for 4 such periods were obtained during assessment of spontaneous activity and for the 40 minute period after the subcutaneous administration of the compounds. Students `t` test was applied to the difference in average values obtained for spontaneous and post-compound activity.

Another test has as its system gastric emptying. The experiment in a line: Increase in gastric emptying: reversal of apomorphine induced delay in gastric emptying in the rat. The conditions noted are these: for III(b) Increase in Gastric Emptying: 10 mg/kg s.c., apomorphine HCl 5 mg/kg s.c. induced delay. The test is classed as in vivo. As to the method: (b) Increase in gastric emptying: reversal of apomorphine induced delay in gastric emptying in the rat
Rats equipped with chromic gastric fistulae were used and it was through this that 5 ml of a test meal (5 ml phosphate buffer at pH 9) was administered and recovered. The % recovery of the standard meal after remaining in the stomach for 10 minutes was taken as an index of gastric emptying. Delay in gastric emptying was induced by the administration of apomorphine HCl (5 mg/kg subcutaneously) which was given 15 minutes prior to the subcutaneous administration of the compound. The % recoveries of the test meal were determined at 15-25 and 45-55 minutes post-dosing with the compound and compared with vehicle only dosed animals set up simultaneously. Six animals were used for each group.

Test [5] concerns the target T1, dopamine receptor. The conditions noted are these: literature; cited from earlier work.
The nature of test [6]: Anti-obesity activity (single compound test). Type of test: in vivo.
The mark [7] stands for this setting: 0.5 nM [3H]-spiroperidol, rat caudate nucleus membranes.
Setting [8] is: 0.5 nM [3H]-spiroperidol, rat caudate nucleus membranes, read-out: I(c) Spiroperidol Displacement ED50 (concentration for 50% displacement).

T1 sequence (P61169 whole entry): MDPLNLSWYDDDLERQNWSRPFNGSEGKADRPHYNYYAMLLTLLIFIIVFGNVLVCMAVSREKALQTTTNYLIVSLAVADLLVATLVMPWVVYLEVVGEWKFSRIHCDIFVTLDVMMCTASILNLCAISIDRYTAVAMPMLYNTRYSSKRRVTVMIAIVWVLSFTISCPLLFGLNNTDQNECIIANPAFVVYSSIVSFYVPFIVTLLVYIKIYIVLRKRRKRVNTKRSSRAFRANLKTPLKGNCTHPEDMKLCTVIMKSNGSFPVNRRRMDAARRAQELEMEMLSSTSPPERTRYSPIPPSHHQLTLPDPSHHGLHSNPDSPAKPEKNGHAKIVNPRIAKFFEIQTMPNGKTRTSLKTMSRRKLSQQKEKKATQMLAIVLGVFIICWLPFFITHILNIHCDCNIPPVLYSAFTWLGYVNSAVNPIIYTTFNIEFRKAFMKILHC

In the case of `COc1cc(N)c(Cl)cc1C(=O)N[C@H]1C[C@H]2CC[C@@H](C1)N2C` [Compound 20, 4-amino-5-chloro-2-methoxy-N-(3'α-[8'-methyl-8'-azabicyclo[3.2.1]-octyl])-benzamide], in test [1], the anti-arrhythmic activity entry is listed as “anti-arrhythmic activity”.
With `COc1cc(N)c(Cl)cc1C(=O)N[C@@H]1C[C@H]2CC[C@@H](C1)N2CC1CCCCC1` [Compound 30, 4-amino-5-chloro-2-methoxy-N-(3'β-[8'-cyclohexylmethyl-8'-azabicyclo-[3.2.1]-octyl])-benzamide], the “I(a) Dose Inhibiting Stereotype Behaviour (slight inhibition, footnote *)” value in the test on Dopamine Receptor [2] (slight at 0.05) was “*”. Moreover, in the test with Dopamine Receptor [3], the “I(b) Anti-Climbing Activity Dose, Complete Inhibition” value was 5 mg/kg. Also, the IC50 on dopamine receptor [4] turned out to be 20 nM. Moreover, the “II Anti-Emetic Activity Dose, slight activity (footnote *)” value in the test on vomiting response (slight at 5 × 10^-4) is on record as “*”. The “III(a) Increase in Intragastric Pressure Dose (minimum dose for activity)” value (“III(a) Increase” for short) in the test on intragastric pressure is “IA(1)”. Further, in the test with gastric emptying, the “III(b) Increase in Gastric Emptying” value amounted to 0.05%.
Take `CCCCN1[C@@H]2CC[C@H]1C[C@@H](NC(=O)c1cc(Cl)c(N)cc1OC)C2` [Compound 27, 4-amino-5-chloro-2-methoxy-N-(3'α-[8'-n-butyl-8'-azabicyclo[3.2.1]-octyl])benzamide]: the “I(a) Dose Inhibiting Stereotype Behaviour (dose for complete inhibition)” value in the test on Dopamine Receptor [2] is “IA(10)”. The “I(b) Anti-Climbing Activity Dose, Complete Inhibition” value in the test on Dopamine Receptor [3] was “IA (inactive at 10 mg/Kg p.o.)”. At dopamine receptor [4] (setting [7]), the inhibition at 10 µM was 66%. Further, the ED100 with vomiting response came out at 1 mg/kg. Further, in the test on intragastric pressure, the “III(a) Increase” value is “IA(10)”. In the test on gastric emptying, the “III(b) Increase in Gastric Emptying” value is “IA(10)”.
In the case of `COc1cc(N)c(Cl)cc1C(=O)N[C@@H]1C[C@H]2CC[C@@H](C1)N2C` [Compound 19, 4-Amino-5-chloro-2-methoxy-N-(3'β-[8'-methy-8'-azabicyclo[3.2.1]-octyl])-benzamide], the “I(a) Dose Inhibiting Stereotype Behaviour (dose for complete inhibition)” value with Dopamine Receptor [2] is recorded as “IA(25)”. In addition, in the test on Dopamine Receptor [3], the “I(b) Anti-Climbing Activity Dose, Complete Inhibition” value was “IA (inactive at 10 mg/Kg p.o.)”. Moreover, the inhibition at 10 µM at dopamine receptor [4] (setting [7]) came to 64%. The ED100 with vomiting response amounted to 0.6 mg/kg. Further, in the test with intragastric pressure (sc, 40 min, read-out: III(a) Increase in Intragastric Pressure Dose (minimum dose for activity)), the minimal effective dose lay in the range of 1 to 10 mg/kg. Also, the “III(b) Increase in Gastric Emptying” value with gastric emptying was 25%.
Consider `O=C(CCCN1CCC2(CC1)C(=O)NCN2c1ccccc1)c1ccc(F)cc1` [[3H]-spiroperidol], for which the “binding to dopamine receptors in the brain” value at dopamine receptor [5] is reported as “high affinity”.
On to `COc1cc(N)c(Cl)cc1C(=O)N[C@@H]1C[C@H]2CC[C@@H](C1)N2Cc1ccc(C)cc1` [Compound 13, 4amino-5chloro-2-methoxy-N-(3β-[8'[4"methylbenzyl]-8'-azabicyclo[3.2.1]octyl])-benzamide], for which the “I(b) Anti-Climbing Activity Dose, ED50” value in the test on Dopamine Receptor [3] was found to be 0.12 mg/kg. Also, on dopamine receptor [4] (setting [7]), the inhibition at 10 µM was 54%. Further, the ED100 with vomiting response is 0.1 mg/kg.
For the compound `COc1cc(N)c(Cl)cc1C(=O)N[C@@H]1C[C@H]2CC[C@@H](C1)N2CCc1ccccc1` [Compound 18, 4amino-5-chloro-2-methoxy-N-(3β-[8'-β-phenethyl]-['-azabicyclo[3.2.1]octyl])-benzamide], the “I(a) Dose Inhibiting Stereotype Behaviour (dose for complete inhibition)” value in the test on Dopamine Receptor [2] is given as “IA(50)”. Further, the “I(b) Anti-Climbing Activity Dose, Complete Inhibition” value in the test with Dopamine Receptor [3] was “IA (inactive at 10 mg/Kg p.o.)”. Further, on dopamine receptor [4] (setting [8]), the IC50 was found to be 600 nM. Also, in the test on vomiting response, the ED100 amounted to 0.25 mg/kg. For the same compound, the “III(a) Increase” value in the test on intragastric pressure was “IA(5)”.
`CCCCN1[C@@H]2CC[C@H]1C[C@H](NC(=O)c1cc(Cl)c(N)cc1OC)C2` [Compound 26, 4-amino-5-chloro-2-methoxy-N-(3'β-[8'-n-butyl-8'-azabicyclo[3.2.1]-octyl])benzamide]: the “I(a) Dose Inhibiting Stereotype Behaviour (slight inhibition, footnote +)” value with Dopamine Receptor [2] (slight at 1) is “+”. Further, the “I(b) Anti-Climbing Activity Dose, ED50” value with Dopamine Receptor [3] is 2.9 mg/kg. In addition, on dopamine receptor [4] (setting [8]), the IC50 came out at 400 nM. Moreover, the ED100 with vomiting response was determined as 0.4 mg/kg. Further, the “III(b) Increase in Gastric Emptying” value in the test with gastric emptying was 1%.
On to `COc1cc(N)c(Cl)cc1C(=O)N[C@@H]1C[C@H]2CC[C@@H](C1)N2Cc1ccccc1` [Compound 5, 4-amino-5-chloro-2-methoxy-N-(3'β-[8'-benzyl]8-azabicyclo[3.2.1]octyl)benzamide], for which, in the test with Dopamine Receptor [2], the “I(a) Dose Inhibiting Stereotype Behaviour (dose for complete inhibition)” value is given as 0.05 mg/kg. Besides, the “I(b) Anti-Climbing Activity Dose, ED50” value in the test with Dopamine Receptor [3] worked out at 0.03 mg/kg. Moreover, the ED100 with vomiting response was 0.001 mg/kg. The minimal effective dose in the test on gastric emptying (sc, read-out: dose that significantly increases gastric emptying) was 0.05 mg/kg. For the same compound, in test [6], the anti-obesity activity result is “anti-obesity activity”.
For the compound `COc1cc(N)c(Cl)cc1C(=O)N[C@@H]1C[C@H]2CCC[C@@H](C1)N2Cc1ccccc1` [Compound 12, 4-amino-5-chloro-2-methoxy-N-(3'β-[9'-benzyl-9'-azabicyclo-[3.3.1]-nonyl])-benzamide], the “I(a) Dose Inhibiting Stereotype Behaviour (dose for complete inhibition)” value with Dopamine Receptor [2] is 0.5 mg/kg. Besides, the “I(b) Anti-Climbing Activity Dose, Complete Inhibition” value in the test on Dopamine Receptor [3] was determined as 2 mg/kg. Besides, on dopamine receptor [4] (setting [7]), the inhibition at 10 µM was 53%. In the test with vomiting response, the ED100 stood at 0.1 mg/kg. For the same compound, the “III(a) Increase” value in the test with intragastric pressure is on record as “IA(1)”.
